Laboratory results as given in patent US20110130374A1, “Small Pyrimidine Derivatives and Methods of Use Thereof” (BIOSEARCH(2007) LTD., priority 2009, published 2011).

What was measured:
[1] = system: B16F10 murine melanoma cells; assay: Anti-metastasis assay: lung metastases in mice implanted with B16F10 melanoma cells; format: in vivo, female B6D2F1 mice; details: i.p., start D3, foci count on D17 vs comparator mice; dose regimen of the value not stated (FIGS. 4A and B)
Protocol: Compound 1 and Compound 3 were tested for efficacy in inhibiting lung metastases in female B6D2F 1 mice implanted with B16F10 murine melanoma cells. Tumors were initiated on Day 1 (D1) by intravenously (i.v.) injecting 1×10^5 B16F10 tumor cells into the tail vein of test mice. Mice were sorted into three vehicle-treated control groups (n=20 or 10/group) and nine treatment groups (n=10/group). Compound 1 and Compound 3 monotherapies were administered at 10 mg/kg (2 mg/mL at 5 mL/kg) and at 20 mg/kg (4 mg/mL at 5 mL/kg), intraperitoneally (i.p.), daily for fourteen doses starting on D3 (qd×14 (start D3)). Compound 1 and Compound 3 monotherapies also were administered at 20 mg/kg (4 mg/mL at 5 mL/kg), i.p., twice daily for twenty-nine doses starting on D3 (bid×14.5 (start D3)). […]
The study endpoint was defined as 100 metastases per lung set in animals periodically sampled from the saline control group. […] All animals remaining on study were euthanized, their metastases were counted, and the mean±SEM foci count for each group was calculated. Efficacy was determined by an analysis of percent inhibition, the percent change in the mean foci count on D17 for treated versus comparator mice, and by statistical assessment of differences in foci counts between treated and comparator mice.

[2] = system: oxazolone-induced DTH; assay: Oxazolone-induced delayed-type hypersensitivity (DTH), ear swelling; format: in vivo, BALB/c mice; details: oral, 1 hour before oxazolone challenge; compared with the control (FIG. 5)
Excerpt: Anti inflammatory assay A delayed-type hypersensitivity (DTH) reaction is an expression of cell-mediated immunity and plays a major role in the pathology and chronicity of many inflammatory disorders. Delayed-type hypersensitivity (DTH) reactions can be induced by various allergens, including oxazolone, 2,4-dinitrofluorobenzene (DNFB) and sheep red blood cells (SRBCs). One of the most characteristic DTH phenomenons is contact hypersensitivity, which is characterized by swelling and by increased tissue levels of cytokines. Contact hypersensitivity (CHS) is a T cell-mediated immune reaction in response to cutaneous sensitization and challenge with reactive haptens that are capable of binding directly to soluble and cell-associated proteins and recognized by T cells in the context of self-MHC products. The cells that recognize antigen-protein complex in the skin are the Langerhans cells (LCs). […]
Ear swelling response will be determined by ear thickness measured with a micrometer before and 24 hours after oxazolone challenge and reported as the mean change in ear thickness (ΔT±S.E.M.). Percent suppression of ear swelling response will be calculated as % suppression=[1−(ΔT of sensitized mice exposed to experimental treatment/ΔT of sensitized mice exposed to vehicle treatment)]×100.

[3] = system: DU145 prostate cancer cell line; assay: Transwell cell migration assay, DU 145 prostate cancer cell line; format: cell-based; details: DU145, 12.5 μM, 24 h, 8 μm pore (FIG. 2)
Protocol: MDA-MB-231 (HTB-26, ATCC, Manassas, Va., USA) and MDA-MB-468 (HTB-132, ATCC, Manassas, Va., USA) breast cancer cell lines and DU 145 (HTB-81, ATCC, Manassas, Va., USA) prostate cancer cell line grown in RPMI medium supplement with 10% FBS were starved for 24 hours in medium without FBS. After 24 hours, 5×10^4 cells in FBS free medium were placed in the upper chamber of 24-well Transwell apparatus (CORNING TRANSWELL® polycarbonate membrane inserts, 8 μm pore size) with solvent (DMSO/PEG400) or 12.5 μM Compound 1 as indicated. Medium with FBS and Compound 1 was added to the bottom chamber. Twenty-four hours later the cells from the upper chamber were removed with a cotton swab. Cells that migrated to the lower side of the membrane were stained with Calcein-AM (Sigma) and images were taken with a fluorescence microscope.

Cc1cc(S(=O)(=O)Nc2ncccn2)ccc1NC(=O)/C(=C\c1cccs1)NC(=O)c1cccs1 [Compound 3]
efficacy in inhibiting lung metastases (percent inhibition of mean foci count) [1]: 45% | anti-inflammatory activity (ear swelling response) [2]: same anti-inflammatory activity as the control

Cc1cc(C)nc(NS(=O)(=O)c2ccc(NC(=O)/C(=C\c3cccs3)NC(=O)c3cccs3)cc2)n1 [Compound 1]
cell migration (Transwell, images) [3]: inhibits the migration | efficacy in inhibiting lung metastases (percent inhibition of mean foci count) [1]: 51% | anti-inflammatory activity (ear swelling response) [2]: same anti-inflammatory activity as the control
